Reference: patent US8791116B2, “Myosin light chain kinase inhibitor compounds, compositions and related methods of use” (Northwestern University, priority 2006, dated 2014)
Entries after “also recorded” stand apart in the source; their conditions may differ.

What was measured:
[1] = target: death-associated protein kinase (DAPK) (Homo sapiens, UniProt P53355); assay: Kinase inhibitory activity against death-associated protein kinase; assay type: biochemical; details: read-out: DAPK (μM), in vitro inhibition of kinases
Method: (§1) MLCK inhibitory activity screens were done by incubation with 20 μM peptide substrate ([…]), 200 μM ATP and [^32P]-ATP (2.5 μCi per reaction) in assay buffer (50 mM HEPES, pH 7.5 with KOH, 5 mM MgCl2, 0.15 M KCl, 0.015 M NaCl, 1 mM DTT) with 0.1 mM CaCl2 and 1 μM calmodulin (New England Biolabs, MA). [T. J. Lukas, S. Mirzoeva, U. Slomczynska and D. M. Watterson, J. Med. Chem. 42 (1999) 910-9.] Reactions were initiated by addition of MLCK protein and incubated for 20 min at 25° C. Reactions were spotted onto P-81 paper (Whatman, Clifton, N.J.), washed with 75 mM H3PO4 and 95% EtOH, and quantified by scintillation counting in EcoScintO (National Diagnostics, Atlanta, Ga.). Testing of compounds for kinase inhibitory activity against the structurally and functionally related kinases death-associated protein kinase (DAPK) and the signal transduction pathway relevant kinases protein kinase A (PKA) and protein kinase C (PKC) was performed as described by using the corresponding peptide substrates and assay conditions. [[…]. Guo, […]. Bourguignon, […]. Van Eldik and D. M. Watterson, J. Med. Chem 45 (2002) 563-6; A. M. Schumacher, […] and D. M. Watterson, Biochemistry 43 (2004) 8116-24; […]. Schumacher and D. M. Watterson, Pharmacol Ther 93 (2002) 217-24; […]. Schumacher, C. Weiss, M. Egli and D. M. Watterson, J. Biol. Chem. 276 (2001) 38956-65; D. M. Watterson, S. Mirzoeva, L. Guo, […]. Bourguignon, […] and L. J. Van Eldik, Neurochem Int. 39 (2001) 459-68.]

protein kinase C (PKC) = assay: Kinase inhibitory activity against protein kinase C; assay type: biochemical; details: read-out: PKC (μM), in vitro inhibition of kinases
Method: MLCK inhibitory activity screens were done by incubation with 20 μM peptide substrate (KKRPQRATSNVFAM-NH2), 200 μM ATP and [^32P]-ATP (2.5 μCi per reaction) in assay buffer (50 mM HEPES, pH 7.5 with KOH, 5 mM MgCl2, 0.15 M KCl, 0.015 M NaCl, 1 mM DTT) with 0.1 mM CaCl2 and 1 μM calmodulin (New England Biolabs, MA). [T. J. Lukas, S. Mirzoeva, U. Slomczynska and D. M. Watterson, J. Med. Chem. 42 (1999) 910-9.] Reactions were initiated by addition of MLCK protein and incubated for 20 min at 25° C. Reactions were spotted onto P-81 paper (Whatman, Clifton, N.J.), washed with 75 mM H3PO4 and 95% EtOH, and quantified by scintillation counting in EcoScintO (National Diagnostics, Atlanta, Ga.). Testing of compounds for kinase inhibitory activity against the structurally and functionally related kinases death-associated protein kinase (DAPK) and the signal transduction pathway relevant kinases protein kinase A (PKA) and protein kinase C (PKC) was performed as described by using the corresponding peptide substrates and assay conditions. [S. Mirzoeva, A. Sawkar, M. Zasadzki, L. Guo, A. V. Velentza, V. Dunlap, J. J. Bourguignon, H. Ramstrom, J. Haiech, L. J. Van Eldik and D. M. Watterson, J. Med. Chem 45 (2002) 563-6; A. M. Schumacher, J. P. Schavocky, A. V. Velentza, S. Mirzoeva and D. M. Watterson, Biochemistry 43 (2004) 8116-24; A. V. Velentza, A. M. Schumacher and D. M. Watterson, Pharmacol Ther 93 (2002) 217-24; A. V. Velentza, A. M. Schumacher, C. Weiss, M. Egli and D. M. Watterson, J. Biol. Chem. 276 (2001) 38956-65; D. M. Watterson, S. Mirzoeva, L. Guo, A. Whyte, J. J. Bourguignon, M. Hibert, J. Haiech and L. J. Van Eldik, Neurochem Int. 39 (2001) 459-68.]

protein kinase A (PKA) = protein kinase A (PKA) (Homo sapiens, UniProt P17612); assay: Kinase inhibitory activity against protein kinase A; assay type: biochemical; details: read-out: PKA (μM), in vitro inhibition of kinases
Method: as §1

MLCK = MLCK (Homo sapiens, UniProt Q15746); assay: MLCK inhibitory activity screen (32P-ATP peptide substrate phosphorylation); assay type: biochemical; details: for IC50: 20 μM peptide substrate, 200 μM ATP, 20 min at 25° C., read-out: MLCK (μM), in vitro inhibition of kinases; for selectivity for MLCK over related protein kinases (in words): compared to DAPK, PKC and PKA
Method: as §1

[2] = system: LPS induced vascular leak in the lungs; assay: Bacterial toxin (LPS)-induced pulmonary vascular leak, Evans blue dye in lung; assay type: in vivo; details: mice, LPS 10 mg/kg i.p., compound 5 mg/kg i.p., 24 h
Method: Adult (20-30 g) female C57B1/6 mice were obtained from a commercial vendor (Harlan, Indianapolis, Ind.). The generation and characterization of the MLCK210 KO mouse strain was previously described. [M. S. Wainwright, J. Rossi, J. Schavocky, S. Crawford, D. Steinhorn, […]. Jia, […]. Van Eldik and D. M. Watterson, Proc. Natl. Acad. Sci. USA 100 (2003) 6233-8.] All animal procedures were performed in accordance with relevant National Institutes of Health guidelines and approved by the Institutional Animal Care and Use Committee of Northwestern University. Pulmonary vascular leak after injurious endotoxin exposure was examined essentially as previously described, above, except using the increase in Evans blue dye in the lung as a quantitative end point. […] The levels of Evans blue in the serum and the tissue supernatant were then determined by measuring the absorbance at 620 nm. The reading at 620 nm (E620) was corrected for the presence of contaminating heme pigments in the samples by measuring the absorbance at 740 nm (E740) and using the correction formula E620=E620-(1.426×E740+0.030). The amount of Evans blue in the samples was then calculated using a standard curve obtained with known amounts of Evans blue. The results were normalized by considering the mean level of Evans blue measured in LPS-treated mice as 100%.

[3] = In vitro metabolic stability with human liver microsomes; assay type: in vitro ADME; details: 5 μM compound, 10 and 30 min at 37° C., HPLC
Method: A standard screening of compounds for in vitro metabolic stability with human liver microsomes was done at 5 μM of compound using commercially available, calibrated human liver microsomes (BD Biosciences, Bedford, Mass.) and an NADPH-regenerating system. [D. Ackley, K. Rockich and T. Baker. in (Caldwell, Z. Y. a. G. W., ed.) Methods in pharmacology and toxicology optimization in drug discovery: in vitro methods, Humana Press Inc., Totowa, N.J. 2004, pp. 151-62.] Briefly, reaction mixtures were prepared in 0.1 M potassium phosphate buffer and contained 1.6 mg/ml microsomal protein, 5 μM test compound, 1.3 mM NADPH, 3.3 mM MgCl2, 0.4 U/ml glucose-6-phosphate dehydrogenase, and 3.3 mM glucose-6-phosphate in a total volume of 300 μl. Reactions were incubated for 10 and 30 minutes at 37° C. and halted by addition of cold acetonitrile. The mixture was centrifuged at 10000 g for 10 min and 20 μl of supernatant was analyzed by HPLC to quantify the percentage of the initial amount of compound remaining after incubation. The HPLC mobile phase consisted of 5% acetonitrile in water as reagent A and 80% acetonitrile/0.08% formic acid/water as reagent B at a flow rate of 0.2 ml/min. The gradient consisted of the following variations in % B: begin with % B at 0 for 2 min, 0-100% from 2 to 22 min, isocratic until 24 min. Peak quantification was done based upon absorption measurements at 260 nm relative to a standard curve obtained by serial dilutions of known amounts of compounds.

Sequence of death-associated protein kinase (DAPK) (P53355 1-285 limits assumed, species assumed): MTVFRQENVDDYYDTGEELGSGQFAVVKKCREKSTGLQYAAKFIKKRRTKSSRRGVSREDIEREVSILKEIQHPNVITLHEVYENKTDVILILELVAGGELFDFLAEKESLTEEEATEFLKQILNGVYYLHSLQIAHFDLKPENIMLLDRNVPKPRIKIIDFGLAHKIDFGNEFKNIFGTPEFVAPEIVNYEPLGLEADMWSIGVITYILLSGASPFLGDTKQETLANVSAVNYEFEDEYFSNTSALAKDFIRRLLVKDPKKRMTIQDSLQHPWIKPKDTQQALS
Sequence of MLCK (Q15746 whole entry): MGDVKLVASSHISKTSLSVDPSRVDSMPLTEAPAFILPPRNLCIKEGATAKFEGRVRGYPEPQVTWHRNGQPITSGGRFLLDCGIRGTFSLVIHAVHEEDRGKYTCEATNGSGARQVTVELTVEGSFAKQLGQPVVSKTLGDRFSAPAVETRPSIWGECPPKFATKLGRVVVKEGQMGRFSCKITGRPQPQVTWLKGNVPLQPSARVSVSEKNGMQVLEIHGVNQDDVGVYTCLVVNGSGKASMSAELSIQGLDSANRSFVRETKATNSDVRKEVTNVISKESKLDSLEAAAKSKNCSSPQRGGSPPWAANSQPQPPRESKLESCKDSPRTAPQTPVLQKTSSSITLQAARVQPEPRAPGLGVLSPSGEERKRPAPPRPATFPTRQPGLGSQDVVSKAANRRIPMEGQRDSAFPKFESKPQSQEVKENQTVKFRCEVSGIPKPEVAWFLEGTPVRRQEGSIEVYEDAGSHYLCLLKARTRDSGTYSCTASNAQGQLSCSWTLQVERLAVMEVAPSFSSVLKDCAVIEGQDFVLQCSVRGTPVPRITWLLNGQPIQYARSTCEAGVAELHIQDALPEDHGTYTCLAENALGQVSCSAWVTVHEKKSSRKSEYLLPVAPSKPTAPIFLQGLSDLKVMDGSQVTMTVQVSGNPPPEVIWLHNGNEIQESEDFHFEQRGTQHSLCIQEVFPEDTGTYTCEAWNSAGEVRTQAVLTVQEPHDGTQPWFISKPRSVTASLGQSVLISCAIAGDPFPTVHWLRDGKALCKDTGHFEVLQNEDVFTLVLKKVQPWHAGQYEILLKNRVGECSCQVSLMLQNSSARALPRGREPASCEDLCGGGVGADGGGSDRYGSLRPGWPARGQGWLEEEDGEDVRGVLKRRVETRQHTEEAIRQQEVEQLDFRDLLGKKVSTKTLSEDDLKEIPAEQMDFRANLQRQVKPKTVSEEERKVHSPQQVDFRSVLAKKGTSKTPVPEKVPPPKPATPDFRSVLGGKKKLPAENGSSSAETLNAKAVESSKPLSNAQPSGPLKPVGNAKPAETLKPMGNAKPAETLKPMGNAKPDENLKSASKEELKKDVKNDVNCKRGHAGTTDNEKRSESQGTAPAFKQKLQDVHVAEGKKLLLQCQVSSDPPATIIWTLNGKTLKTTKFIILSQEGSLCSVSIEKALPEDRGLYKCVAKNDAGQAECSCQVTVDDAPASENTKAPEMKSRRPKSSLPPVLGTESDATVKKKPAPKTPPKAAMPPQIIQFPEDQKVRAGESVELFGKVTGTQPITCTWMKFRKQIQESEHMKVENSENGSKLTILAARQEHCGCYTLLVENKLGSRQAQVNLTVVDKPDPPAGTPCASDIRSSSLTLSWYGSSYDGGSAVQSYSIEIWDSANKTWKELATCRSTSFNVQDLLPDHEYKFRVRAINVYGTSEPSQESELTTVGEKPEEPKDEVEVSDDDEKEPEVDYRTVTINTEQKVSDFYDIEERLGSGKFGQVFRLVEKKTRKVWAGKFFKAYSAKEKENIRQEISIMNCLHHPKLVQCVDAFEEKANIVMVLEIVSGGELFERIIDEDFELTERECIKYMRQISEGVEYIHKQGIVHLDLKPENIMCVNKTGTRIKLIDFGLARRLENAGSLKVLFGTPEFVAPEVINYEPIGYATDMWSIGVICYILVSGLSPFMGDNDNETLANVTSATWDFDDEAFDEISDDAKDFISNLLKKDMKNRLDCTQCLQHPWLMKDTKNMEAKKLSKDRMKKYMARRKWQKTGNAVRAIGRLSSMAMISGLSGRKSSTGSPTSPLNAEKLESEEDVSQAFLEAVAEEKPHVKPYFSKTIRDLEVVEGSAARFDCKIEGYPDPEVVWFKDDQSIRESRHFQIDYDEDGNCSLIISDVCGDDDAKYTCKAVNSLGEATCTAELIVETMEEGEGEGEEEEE

N=c1ccc(-c2ccccc2)nn1CCCCCCCCCCC(=O)NCCc1c[nH]cn1 [Compound 5, N-(2-(1H-imidazol-4-yl)ethyl)-11-(6-imino-3-phenylpyridazin-1(6H)-yl)undecanamide]
IC50 [1]: 271 µM | IC50 (protein kinase C (PKC)): 166 µM | IC50 (protein kinase A (PKA)): > 1000 µM | IC50 (MLCK): 6.3 µM | selectivity for MLCK over related protein kinases (in words) (MLCK): more selective than compounds 1 or 2

CN1CCCC1CCNC(=O)CCCCCCCCCCn1nc(-c2ccccc2)ccc1=N (stereo not drawn) [Compound 6, 11-(6-imino-3-phenylpyridazin-1(6H)-yl)-N-(2-(1-methylpyrrolidin-2-yl)ethyl)-undecanamide]
level of Evans blue dye in lung tissue (pulmonary vascular leak) [2]: efficacious in vivo to reduce LPS-induced pulmonary vascular leak; also recorded: significantly lower (*p<0.05) levels of dye | IC50 [1]: > 1000 µM | amount of compound remaining after incubation with human liver microsomes [3]: stable | amount of compound remaining after incubation with human liver microsomes ([3]; listed as compound 6): did not decrease up to 30 minutes of incubation; also recorded: The majority of compound 6 (filled bar) remains after 10 and 30 min incubation times | IC50 (protein kinase C (PKC)): 414 µM | IC50 (protein kinase A (PKA)): > 1000 µM | IC50 (MLCK): 13.3 µM | selectivity for MLCK over related protein kinases (in words) (MLCK): highly selective for MLCK; also recorded: selective for MLCK compared to closely related protein kinases | selectivity for MLCK versus DAPK (MLCK; ratio from Table 1): over 76 times

N=c1ccc(-c2ccccc2)nn1CCCCCCCCCCC(=O)NCCC1CCCC1 [Compound 10, N-(2-cyclopentylethyl)-11-(6-imino-3-phenylpyridazin-1(6H)-yl)undecanamide]
IC50 [1]: 206 µM | amount of compound remaining after incubation with human liver microsomes [3]: significantly lower than compound 6; also recorded: significantly different (***p<0.001) at 10 and 30 min compared to zero min | IC50 (protein kinase C (PKC)): 68 µM | IC50 (protein kinase A (PKA)): > 1000 µM | IC50 (MLCK): 2.5 µM | selectivity for MLCK over related protein kinases (in words) (MLCK): selective for MLCK | MLCK inhibitory activity relative to parent compound (in words) (MLCK; in vitro, versus compound 6): more active in vitro than the parent compound 6
